T1: Solute carrier organic anion transporter family member 2B1 (Rattus norvegicus, UniProt Q9JHI3)
T1 sequence (Q9JHI3 whole entry): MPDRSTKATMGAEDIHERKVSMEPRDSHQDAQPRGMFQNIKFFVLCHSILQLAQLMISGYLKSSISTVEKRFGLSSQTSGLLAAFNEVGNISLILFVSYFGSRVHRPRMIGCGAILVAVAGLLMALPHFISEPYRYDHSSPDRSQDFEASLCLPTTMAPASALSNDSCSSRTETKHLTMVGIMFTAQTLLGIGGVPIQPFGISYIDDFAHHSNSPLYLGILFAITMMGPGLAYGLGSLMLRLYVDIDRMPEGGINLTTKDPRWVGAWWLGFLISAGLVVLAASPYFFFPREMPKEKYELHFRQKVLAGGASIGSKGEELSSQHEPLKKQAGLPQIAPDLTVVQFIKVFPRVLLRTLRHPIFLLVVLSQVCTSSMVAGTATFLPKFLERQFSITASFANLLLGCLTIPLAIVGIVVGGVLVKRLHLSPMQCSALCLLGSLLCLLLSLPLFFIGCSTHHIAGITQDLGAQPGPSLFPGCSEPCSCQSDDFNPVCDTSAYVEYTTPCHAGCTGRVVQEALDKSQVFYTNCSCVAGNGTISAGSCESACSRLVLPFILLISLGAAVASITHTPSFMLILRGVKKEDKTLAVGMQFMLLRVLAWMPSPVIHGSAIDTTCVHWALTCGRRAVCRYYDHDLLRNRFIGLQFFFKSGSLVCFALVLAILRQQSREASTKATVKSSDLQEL

B1: Solute carrier organic anion transporter family member 2B1 (Rattus norvegicus) (protein)
chain: T1 sequence (Q9JHI3 whole entry)

Columns and labels:
[1] = target: T1, Solute carrier organic anion transporter family member 2B1; assay: TP_TRANSPORTER: inhibition of PGD2 uptake in Xenopus laevis oocytes; assay type: functional, cell-based, Oocyte
[2] = target: T1, Solute carrier organic anion transporter family member 2B1; assay: (§1) TP_TRANSPORTER: uptake in Xenopus laevis oocytes; assay type: functional, cell-based; details: oocyte
[3] = substrate: CCCCC/C=C\C\C=C/C=C/C=C/[C@@H](SC[C@@H](NC(=O)CC[C@H](N)C(=O)O)C(=O)NCC(=O)O)[C@@H](O)CCCC(=O)O; assay: as §1; assay type: functional, cell-based, Oocyte
[4] = substrate: CCCCC[C@H](O)/C=C/[C@H]1C(=O)C[C@H](O)[C@@H]1C/C=C\CCCC(=O)O; assay: as §1; assay type: functional, cell-based, Oocyte

Row | Molecule | IC50 [1] [nM] | Activity [2] | Km [3] [µM] | Km [4] [µM]
1 | CCCCC[C@H](O)/C=C/[C@H]1[C@H](O)CC(=O)[C@@H]1CCCCCCC(=O)O [ALPROSTADIL] | 35.8 | substrate [+] | – | –
2 | CCCCC[C@H](O)/C=C/[C@H]1[C@H](O)CC(=O)[C@@H]1C/C=C\CCCC(=O)O [DINOPROSTONE] | – | substrate [+] | – | –
3 | CCCCC[C@H](O)/C=C/[C@@H]1[C@@H](C/C=C\CCCC(=O)O)[C@@H](O)C[C@H]1O [DINOPROST] | 287 | is not a substrate [-] | – | –
4 | CC#CCC(C)[C@H](O)/C=C/[C@@H]1[C@H]2C/C(=C/CCCC(=O)O)C[C@H]2C[C@H]1O (stereo not given in full) [ILOPROST] | – | substrate [+] | – | –
5 | C[C@]12CC[C@H](OS(=O)(=O)O)CC1=CC[C@@H]1[C@@H]2CC[C@]2(C)C(=O)CC[C@@H]12 [PRASTERONE SULFURIC ACID] | – | is not a substrate [-] | – | –
6 | CCCCC[C@H](O)/C=C/[C@H]1OC(O)C[C@H](O)[C@@H]1C/C=C\CCCC(=O)O (stereo not given in full) [THROMBOXANE B2] | – | substrate [+] | – | –
7 | B1 | – | – | 3.2 | 0.0355

Source: ChEMBL document CHEMBL2074151, “Molecular identification of a rat novel organic anion transporter moat1, which transports prostaglandin D(2), leukotriene C(4), and taurocholate” (Biochem Biophys Res Commun, 2000)
